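Assay format: 96-well plates, 48-hour exposure. TGI denotes the concentration required for complete inhibition of growth.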
Key:
Experiment in all cases: growth of human tumour cells (NCI), 48 h
KM12 colon = system: KM12 colon
HCT-15 colon = system: HCT-15 colon
A549 NSCLC = system: A549 NSCLC
RXF 393 renal = system: RXF 393 renal
SK-MEL-2 melanoma = system: SK-MEL-2 melanoma
HCC-2998 colon = system: HCC-2998 colon
SN12C renal = system: SN12C renal
SR leukemia = system: SR leukemia
T-47D breast = system: T-47D breast
EKVX NSCLC = system: EKVX NSCLC
OVCAR-3 ovarian = system: OVCAR-3 ovarian
OVCAR-5 ovarian = system: OVCAR-5 ovarian
OVCAR-8 ovarian = system: OVCAR-8 ovarian
UACC-62 melanoma = system: UACC-62 melanoma
NCI/ADR-RES ovarian = system: NCI/ADR-RES ovarian
COLO 205 colon = system: COLO 205 colon
CAKI-1 renal = system: CAKI-1 renal
CCRF-CEM leukemia = system: CCRF-CEM leukemia
SF-268 CNS = system: SF-268 CNS
MDA-N = system: MDA-N

Row | SMILES | TGI (KM12 colon) | TGI (HCT-15 colon) | TGI (A549 NSCLC) | TGI (RXF 393 renal) | TGI (SK-MEL-2 melanoma) | TGI (HCC-2998 colon) | TGI (SN12C renal) | TGI (SR leukemia) | TGI (T-47D breast) | TGI (EKVX NSCLC) | TGI (OVCAR-3 ovarian) | TGI (OVCAR-5 ovarian) | TGI (OVCAR-8 ovarian) | TGI (UACC-62 melanoma) | TGI (NCI/ADR-RES ovarian) | TGI (COLO 205 colon) | TGI (CAKI-1 renal) | TGI (CCRF-CEM leukemia) | TGI (SF-268 CNS) | TGI (MDA-N)
1 | Nc1c2ccccc2nc2ccc(C(=O)Nc3ccc(S(N)(=O)=O)cc3)cc12 | > 100 µM | > 100 µM | > 100 µM | > 100 µM | > 100 µM | > 100 µM | > 100 µM | > 100 µM | > 100 µM | > 100 µM | > 100 µM | > 100 µM | > 100 µM | > 100 µM | > 100 µM | > 100 µM | > 100 µM | > 100 µM | > 100 µM | > 100 µM
2 | CCOC(=O)C1C(=O)C=C(c2cc(C)ccc2O)CC1c1cccc(Br)c1 (stereo not given) | 47.4 µM | 10.4 µM | 51.2 µM | 33.4 µM | 39.4 µM | 34.6 µM | 33.1 µM | 25.4 µM | 72 µM | 67.6 µM | 84.8 µM | 68.9 µM | 92.7 µM | 28 µM | 46.1 µM | 31.1 µM | 80.5 µM | 71.7 µM | 77.9 µM | 21.2 µM
3 | O=C1c2c(ccc3c2CCCC3)CC12Cc1ccccc1C2 | 59.9 µM | > 49.8 µM | > 92.6 µM | 46.2 µM | 39.6 µM | > 74.8 µM | > 100 µM | > 27.6 µM | > 100 µM | > 95.9 µM | 48.9 µM | > 67.6 µM | > 100 µM | > 100 µM | > 100 µM | 65.2 µM | > 77.7 µM | 27 µM | > 100 µM | > 100 µM
4 | Cc1ccc(-n2cc(-c3ccc(Cl)cc3)c3c(NNC(=S)NCc4ccccc4)ncnc32)cc1 | 20 µM | 68.2 µM | 41.1 µM | 56.4 µM | 20.1 µM |  | 24.3 µM | 21.5 µM | > 100 µM | 73.5 µM | 37.4 µM | 48.6 µM | 69.3 µM | 64.8 µM | 32.8 µM | 27.3 µM | 29.1 µM | > 100 µM | > 100 µM | > 100 µM
5 | CC(C)(C)OC(=O)N1CC(COS(C)(=O)=O)c2ccc(O)cc21 (stereo not given) | 7.16 µM | 5.68 µM | 10.7 µM | 0.924 µM | 2.9 µM | 0.991 µM | 6.77 µM | 5.31 µM | 11.1 µM | 4.59 µM | 7.25 µM | 5.86 µM | 4.51 µM | 3.2 µM | 4.07 µM | 3.31 µM | 9.62 µM | 3.06 µM | 4.33 µM | 3.98 µM
6 | O=C1CSC(c2ccc(Cl)cc2)N1c1ccc(-n2c(-c3ccccc3)nc3ccccc3c2=O)cc1 (stereo not given) | > 100 µM | > 100 µM | > 100 µM |  | > 100 µM | > 100 µM | > 100 µM | > 100 µM | > 100 µM | > 100 µM | > 100 µM | > 100 µM | > 100 µM | > 100 µM | > 100 µM | > 100 µM | > 100 µM | > 100 µM | > 100 µM | > 100 µM
7 | Cc1cc(C)n(CN(Cn2nc(C)cc2C)c2ccc(N(Cn3nc(C)cc3C)Cn3nc(C)cc3C)cc2)n1 | 58.2 µM | 45.4 µM | 89.1 µM | 42.6 µM | 50.1 µM |  | 51.9 µM | > 100 µM | 51.8 µM | 54.1 µM | 49.3 µM | 51.1 µM | 77.4 µM | 44.9 µM | 43.2 µM | 31.5 µM | 62.4 µM | 63.9 µM | 69.7 µM | 38.4 µM
8 | COC(=O)[C@H]1ON2O[C@H](OC3CCCC[C@@H]3c3ccccc3)C[C@@H]3CC[C@H]1[C@@]32C (stereo not given in full) | > 100 µM | > 100 µM | > 100 µM | > 100 µM | > 100 µM | > 100 µM | > 100 µM | > 100 µM | > 100 µM | > 100 µM |  | > 100 µM | > 100 µM | > 100 µM | > 100 µM | > 100 µM | > 100 µM | > 100 µM | > 100 µM | > 100 µM
9 | COc1cc(C=Nc2ccc(Oc3ccc(Cl)cc3)c(Cl)c2)cc(OC)c1OC | 38.1 µM | 39.2 µM | 44.7 µM |  | 45.9 µM | 40.3 µM | 40.3 µM | 54.1 µM | 39.7 µM | 48.1 µM | 48.4 µM | > 100 µM | 62.1 µM | 30.4 µM | 48.8 µM | 34 µM | 72 µM | 66.4 µM | 30.5 µM | 51.3 µM

From PubChem BioAssay (NCI)
